# Patent publication US4835168A, “Thiadiazole antiviral agents” (Eli Lilly and Company, priority 1988, dated 1989)
# “Also recorded” adds a separate entry of the source. Counter-ions that a name gives are not always drawn. Like-named read-outs stand apart in the source and are kept apart here.
# Key:
# [1] = tested on: influenza A-NWS; test: plaque-reduction study in MDCK cells (Table III); type: cell-based; conditions: values marked *: one discordant test >50 not incorporated; for IC50: MDCK, read-out: IC50, inhibition of plaque formation by 50 percent
# [2] = tested on: influenza A1-Ann Arbor strain; test: in vivo mouse influenza test, survival index, relative activity (Table I); conditions: CD-1 mice, 10 days
# [3] = tested on: influenza B-Great Lake; test: plaque-reduction study in MDCK cells (Table III); type: cell-based; conditions: for IC50: MDCK, read-out: IC50, inhibition of plaque formation by 50 percent
# [4] = Malinoski et al., Virology 1981; cited from earlier work
# [5] = tested on: influenza Al-Ann Arbor; test: plaque-reduction study in MDCK cells (Table III); type: cell-based; conditions: for IC50: MDCK, read-out: IC50, inhibition of plaque formation by 50 percent
# [6] = tested on: Semliki Forest; test: plaque-reduction test (Table V); type: cell-based; conditions: BSCl cells, read-out: IC50, inhibition of plaque formation by 50 percent
# [7] = tested on: Herpes II; test: plaque-reduction test (Table V); type: cell-based; conditions: BSCl cells, read-out: IC50, inhibition of plaque formation by 50 percent
# [8] = tested on: HIV; test: preliminary testing against retroviruses
# [9] = tested on: RSV; test: in vivo antiviral test in hamster (Table IV); conditions: reduction in nasal washing virus titer vs control
# Protocol: (§1) As previously mentioned, in vivo antiviral test results may vary due to numerous factors. […] The compounds of Examples 1 and 7 were tested against several different viruses using different kinds of test animals and different modes of oral and topical administration. In Table IV below, Column 1 indicated the test compound, while Column 2 discloses the virus the compound was employed against. Columns 3 and 4 describe the test animal and the method of administration, respectively. Finally, Column 5 discloses whether or not antiviral activity was shown.
# [10] = tested on: HSV II; test: in vivo antiviral test in guinea pig (Table IV); conditions: topical cream, fewer lesions than control
# Protocol: as §1
# [11] = tested on: Parainfluenza (type 3); test: plaque-reduction test (Table V); type: cell-based; conditions: read-out: IC50, inhibition of plaque formation by 50 percent
# [12] = tested on: Vesicular Stomatitus Virus; test: in vitro activity against Vesicular Stomatitus Virus; type: cell-based
# [13] = tested on: HSV I; test: in vivo antiviral test in mouse (Table IV); conditions: drinking water, more survivors than control
# Protocol: as §1
# [14] = tested on: Friend Leukemia; test: preliminary testing against retroviruses
# [15] = tested on: Herpes I; test: plaque-reduction test (Table V); type: cell-based; conditions: BSCl cells, read-out: IC50, inhibition of plaque formation by 50 percent
# [16] = tested on: Vaccinia; test: microbe, parasite or virus in culture; type: cell-based; conditions: Orthopoxvirus vaccinia, read-out: IC50, inhibition of plaque formation by 50 percent
# [17] = tested on: influenza B-Maryland; test: survival of infected mice, oral in diet (Table II); type: in vivo; conditions: control 14/50
# From the text: (§2) Again, due to the nature of in vivo antiviral tests the in vivo antiviral influenza activity of the compounds can vary. […] A typical test would run for at least ten days.
# [18] = tested on: influenza Al-Ann Arbor; test: survival of infected mice, oral in diet (Table II); type: in vivo; conditions: control 0/50
# From the text: as §2
# [19] = tested on: influenza A-Texas; test: survival of infected mice, oral in diet (Table II); type: in vivo; conditions: control 8/36
# From the text: as §2
# [20] = tested on: influenza B-Hong Kong; test: survival of infected mice, oral in diet (Table II); type: in vivo; conditions: control 4/50
# From the text: as §2
# [21] = tested on: influenza B-Taiwan; test: survival of infected mice, oral in diet (Table II); type: in vivo; conditions: control 1/36
# From the text: as §2
# [22] = tested on: influenza B-Great Lake; test: survival of infected mice, oral in diet (Table II); type: in vivo; conditions: control 3/36
# From the text: as §2
# [23] = tested on: influenza A-Brazil; test: survival of infected mice, oral in diet (Table II); type: in vivo; conditions: control 10/28
# From the text: as §2
# [24] = in vivo conversion to salt form of the compound of Example 6
smiles,measurement,setting,value
"CCOC(=O)NC(=S)Nc1nncs1 [Preparation 1, [(1,3,4-Thiadiazol-2-ylamino)thioxomethyl]carbamic acid, ethyl ester]",IC50,[1],43 µg/mL
same,"RA (relative activity index from P, percent of maximum survival index)",[2],4.5
same,IC50,[3],> 50 µg/mL
CCOC(=O)N=C(Nc1nncs1)SCC [Preparation 8],IC50,[1],> 50 µg/mL
same,"RA (relative activity index from P, percent of maximum survival index)",[2],5 (80-100% = 5 (very active))
"Nc1nncs1 [2-amino-1,3,4-thiadiazole]",antiviral activity,[4],certain antiviral activity
"COC(=O)NC(=S)Nc1nncs1 [Preparation 5, [(1,3,4-thiadiazol-2-ylamino)thioxomethyl]carbamic acid, methyl ester]","RA (relative activity index from P, percent of maximum survival index)",[2],5 (80-100% = 5 (very active))
"N#CNc1nncs1 [Example 6, 1,3,4-Thiadiazole-2-cyanamide]",IC50,[5],0.85 µg/mL
same,IC50,[1],0.78 µg/mL
same,"IC50, inhibition of plaque formation by 50 percent",[3],2.25 MCG/ML
"NC(N)=Nc1nncs1 [Example 8, 1,3,4-Thiadiazole-2-guanidine]",IC50,[5],0.02 µg/mL
same,IC50,[3],0.27 µg/mL
"NC(=Nc1nncs1)SCc1ccccn1 [Example 4, N^1-1,3,4-thiadiazol-2-ylcarbamimidothioic acid, 2-pyridinylmethyl ester, hydrochloride]",IC50,[1],> 50 µg/mL
same,"RA (relative activity index from P, percent of maximum survival index)",[2],2.5
same,IC50,[3],> 50 µg/mL
"N#CNc1nncs1 [Example 7, 1,3,4-Thiadiazole-2-cyanamide Sodium salt]","IC50, inhibition of plaque formation by 50 percent",[5]; Sodium salt,0.82 MCG/ML
same,"IC50, inhibition of plaque formation by 50 percent",[1]; Sodium salt,0.58 MCG/ML
same,IC50,[6],< 0.23 µg/mL
same,IC50,[7],0.19 µg/mL
same,activity against retroviruses,[8],failed to demonstrate conclusive activity
same,antiviral activity shown (Result),[9]; food,active
same,antiviral activity shown (Result),[10],active
same,IC50,[11]; BSCl cells,0.14 µg/mL
same,IC50,[11]; HELA cells,0.72 µg/mL
same,in vitro activity against Vesicular Stomatitus Virus,[12],does not
same,"IC50, inhibition of plaque formation by 50 percent",[3]; Sodium salt,1.00 MCG/ML
same,antiviral activity shown (Result),[13],active
same,activity against retroviruses,[14],failed to demonstrate conclusive activity
same,IC50,[15],2.95 µg/mL
same,IC50,[16]; Vero,0.29 µg/mL
same,IC50,[16],< 0.31 µg/mL
"NC(=S)Nc1nncs1 [Preparation 2, 1,3,4-Thiadiazol-2-ylthiourea]",IC50,[5],> 50 µg/mL
same,IC50,[1],3.6 µg/mL
same,number of animals surviving over number tested (S/N),[17]; 60 mg/kg/day,19/20
same,number of animals surviving over number tested (S/N),[17]; 120 mg/kg/day,20/20
same,number of animals surviving over number tested (S/N),[18]; 60 mg/kg/day,20/20
same,number of animals surviving over number tested (S/N),[18]; 120 mg/kg/day,20/20
same,number of animals surviving over number tested (S/N),[19]; 15 mg/kg/day,5/18
same,number of animals surviving over number tested (S/N),[19]; 30 mg/kg/day,8/18
same,number of animals surviving over number tested (S/N),[19]; 60 mg/kg/day,12/18
same,number of animals surviving over number tested (S/N),[19]; 120 mg/kg/day,16/18
same,number of animals surviving over number tested (S/N),[20]; 60 mg/kg/day,10/20
same,number of animals surviving over number tested (S/N),[20]; 120 mg/kg/day,16/20
same,number of animals surviving over number tested (S/N),[21]; 15 mg/kg/day,4/18
same,number of animals surviving over number tested (S/N),[21]; 30 mg/kg/day,15/18
same,number of animals surviving over number tested (S/N),[21]; 60 mg/kg/day,18/18
same,number of animals surviving over number tested (S/N),[21]; 120 mg/kg/day,18/18
same,number of animals surviving over number tested (S/N),[22]; 15 mg/kg/day,11/18
same,number of animals surviving over number tested (S/N),[22]; 30 mg/kg/day,16/18
same,number of animals surviving over number tested (S/N),[22]; 60 mg/kg/day,17/18
same,number of animals surviving over number tested (S/N),[22]; 120 mg/kg/day,18/18
same,number of animals surviving over number tested (S/N),[23]; 15 mg/kg/day,5/15
same,number of animals surviving over number tested (S/N),[23]; 30 mg/kg/day,5/16
same,number of animals surviving over number tested (S/N),[23]; 60 mg/kg/day,12/18
same,number of animals surviving over number tested (S/N),[23]; 120 mg/kg/day,14/18
same,in vitro activity against Vesicular Stomatitus Virus,[12],displays in vitro activity
same,IC50,[3],7 µg/mL
"CCCCCCOC(=O)NC(=S)Nc1nncs1 [Preparation 4, [(1,3,4-Thiadiazol-2-ylamino)thioxomethyl]carbamic acid, n-hexyl ester]","RA (relative activity index from P, percent of maximum survival index)",[2],5 (80-100% = 5 (very active))
"CCCCSC(N)=Nc1nncs1 [Example 3, N^1-1,3,4-thiadiazol-2-ylcarbamimidothioic acid, n-butyl ester]",IC50,[1],21.3 µg/mL
same,"RA (relative activity index from P, percent of maximum survival index)",[2],5 (80-100% = 5 (very active))
same,IC50,[3],> 50 µg/mL
"CCSC(N)=Nc1nncs1 [Example 2, N^1-1,3,4-thiadiazol-2-ylcarbamimidothioic acid, ethyl ester]",IC50,[1],18.9 µg/mL
same,"RA (relative activity index from P, percent of maximum survival index)",[2],5 (80-100% = 5 (very active))
same,IC50,[3],9.5 µg/mL
"C=COC(=O)NC(=S)Nc1nncs1 [Preparation 6, [(1,3,4-thiadiazol-2-ylamino)thioxomethyl]carbamic acid, vinyl ester]","RA (relative activity index from P, percent of maximum survival index)",[2],4 (60-80% = 4 (good activity))
"O=C(NC(=S)Nc1nncs1)Oc1ccccc1 [Preparation 3, [(1,3,4-Thiadiazol-2-ylamino)thioxomethyl]carbamic acid, phenyl ester]",IC50,[1],< 1.6 µg/mL
same,"RA (relative activity index from P, percent of maximum survival index)",[2],5 (80-100% = 5 (very active))
"CCOC(=O)N=C(Nc1nncs1)SC [Preparation 7, [(Methylthio)(1,3,4-thiadiazol-2-ylamino)methyl]carbamic acid, ethyl ester]",IC50,[1],75.5 µg/mL
same,"RA (relative activity index from P, percent of maximum survival index)",[2],5 (80-100% = 5 (very active))
"N#CCSC(N)=Nc1nncs1 [Example 5, N^1-1,3,4-thiadiazol-2-ylcarbamimidothioic acid, cyanomethyl ester]","RA (relative activity index from P, percent of maximum survival index)",[2],2.5
"CSC(N)=Nc1nncs1 [Example 1, N^1-1,3,4-thiadiazol-2-ylcarbamimidothioic acid, methyl ester]",IC50,[5],0.68 µg/mL
same,"RA (relative activity index from P, percent of maximum survival index)",[2],5 (80-100% = 5 (very active))
same,IC50,[6],43 µg/mL
same,conversion in vivo to a salt form of the compound of Example 6,[24],converted to a salt form of the compound of Example 6; also recorded: converted in vivo to a salt form
same,antiviral activity shown (Result),[9]; drinking water,active
same,IC50,[11]; BSCl cells,4.5 µg/mL
same,IC50,[11]; HELA cells,> 25 µg/mL
same,IC50,[3],16.3 µg/mL
same,antiviral activity shown (Result),[13],active
same,IC50,[15],9.6 µg/mL
same,IC50,[16],15.8 µg/mL
